By Kd is commonly meant the equilibrium constant for the complex coming apart. What is called pKd is the negative decadic logarithm of the Kd, by convention in mol/L. In general, Ki refers to a measure of affinity in units of concentration, obtained from inhibition or displacement. A higher Ki goes with weaker binding.

Common to all, as to format: binding
Experiment [1] deals with T1, human TfR1 (Homo sapiens, UniProt P02786). As to the kind of experiment: biochemical. Conditions: for Kd: Human TfR1 Kd (nM); for pKd: read-out: Human TfR1 Kd. Also on record: His6-tagged TfR1 (a.a. 89-760) (ACRO Biosystems, CD1-H5243 and TFR-C524a); His6; purchased R&D Systems or Acro Biosystems 2474-TR or CD1-H5243.
T1 sequence (P02786 89-760): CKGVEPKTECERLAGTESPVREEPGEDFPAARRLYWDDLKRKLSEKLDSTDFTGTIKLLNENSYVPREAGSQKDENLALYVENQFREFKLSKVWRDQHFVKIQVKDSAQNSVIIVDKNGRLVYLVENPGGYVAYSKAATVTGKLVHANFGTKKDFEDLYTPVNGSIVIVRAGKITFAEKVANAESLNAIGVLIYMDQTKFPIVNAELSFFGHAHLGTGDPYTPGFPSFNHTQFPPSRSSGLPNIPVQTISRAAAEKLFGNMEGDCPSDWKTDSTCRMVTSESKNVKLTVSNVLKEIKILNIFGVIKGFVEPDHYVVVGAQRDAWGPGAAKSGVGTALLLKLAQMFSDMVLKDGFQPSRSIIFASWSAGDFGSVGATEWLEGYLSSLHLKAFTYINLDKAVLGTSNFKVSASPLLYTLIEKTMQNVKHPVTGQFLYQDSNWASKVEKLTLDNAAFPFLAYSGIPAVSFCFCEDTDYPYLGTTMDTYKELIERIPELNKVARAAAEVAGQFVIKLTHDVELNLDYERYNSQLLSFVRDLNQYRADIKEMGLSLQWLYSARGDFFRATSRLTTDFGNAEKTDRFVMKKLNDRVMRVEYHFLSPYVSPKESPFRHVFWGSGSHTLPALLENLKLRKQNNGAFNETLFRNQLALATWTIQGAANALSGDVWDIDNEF
Experiment [2] deals with cynomolgus TfR1.
Experiment [3] addresses T1, human TfR1. As to the kind of experiment: biochemical. More on the design: His6-tagged TfR1 (a.a. 89-760) (ACRO Biosystems, CD1-H5243 and TFR-C524a); His6; purchased R&D Systems or Acro Biosystems 2474-TR or CD1-H5243.

SMILES strings stand for the structures. pKd: −log10 of the molar value. Where two headings read alike, the source gives them in different places. Starred links: 1 amine or outer side, 2 acyl side, 3 side chain; linkers in the order of their positions; H or OH if unused. Positions of bridges follow the written chain, without caps; N, C: chain ends. Residues, ends and D or L forms follow the SMILES beside them. TATB = O=C(C[*:1])N1CN(C(=O)C[*:2])CN(C(=O)C[*:3])C1

`CC[C@H](C)[C@@H]1NC(=O)[C@@H]2CSCC(=O)N3CN(CN(C3)C(=O)CSC[C@H](NC(C)=O)C(=O)N[C@@H](CO)C(=O)N3CCC[C@H]3C(=O)N[C@@H](CC(=O)O)C(=O)N[C@@H](C)C(=O)N[C@@H](Cc3c[nH]cn3)C(=O)N[C@@H](CC(C)C)C(=O)NCC(=O)N2)C(=O)CSC[C@@H](C(N)=O)NC(=O)[C@H](Cc2ccc(O)cc2)NC(=O)[C@H](CO)NC1=O` [BCY15891, Ac-(SEQ ID NO: 9)] (Ac-CSPDAHLGCISYC-NH2; linker 1-9-13 via TATB) registered a dissociation constant Kd in experiment [1] of 46 nM. In addition, the negative logarithm of the Kd (pKd) in experiment [2] is 5.40. Also, the Ki was determined as 0.067 µM in experiment [3] (Geomean Ki (μM)) and 0.094 µM in experiment [3] (Human TfR1 Ki (nM)).

With `CC[C@H](C)[C@@H]1NC(=O)[C@@H]2CSCC(=O)N3CN(CN(C3)C(=O)CSC[C@@H](C(=O)N[C@@H](C)C(N)=O)NC(=O)[C@H](Cc3ccc4ccccc4c3)NC(=O)[C@H](CO)NC1=O)C(=O)CSC[C@H](NC(=O)[C@H](C)N)C(=O)N[C@@H](CO)C(=O)N1CCC[C@H]1C(=O)N[C@@H](CC(=O)O)C(=O)N[C@@H](C)C(=O)N[C@@H](Cc1c[nH]cn1)C(=O)N[C@@H](CC(C)C)C(=O)NCC(=O)N2` [BCY16031, A-(SEQ ID NO: 36)-A], the pKd in experiment [1] was 7.17; in experiment [2], 5.19. The molecule also returned a Ki in experiment [3] (Geomean Ki (μM)) of 0.119 µM.

In experiment [1], `CC[C@H](C)[C@@H]1NC(=O)[C@@H]2CSCC(=O)N3CN(CN(C3)C(=O)CSC[C@@H](C(=O)N[C@@H](C)C(N)=O)NC(=O)[C@H](Cc3ccncc3)NC(=O)[C@H](CO)NC1=O)C(=O)CSC[C@H](NC(=O)[C@H](C)N)C(=O)N[C@@H](CO)C(=O)N1CCC[C@H]1C(=O)N[C@@H](CC(=O)O)C(=O)N[C@@H](C)C(=O)N[C@@H](Cc1c[nH]cn1)C(=O)N[C@@H](CC(C)C)C(=O)NCC(=O)N2` [BCY16032, A-(SEQ ID NO: 48)-A] yielded a Kd of 305 nM. The molecule also had a pKd in experiment [2] of 4.52. The Ki in experiment [3] (Geomean Ki (μM)) is 0.654 µM.

As for `CC[C@H](C)[C@@H]1NC(=O)[C@@H]2CSCC(=O)N3CN(CN(C3)C(=O)CSC[C@@H](C(=O)N[C@@H](C)C(N)=O)NC(=O)[C@H](Cc3ccc(O)cc3)NC(=O)[C@H](CO)NC1=O)C(=O)CSC[C@H](NC(=O)[C@H](C)N)C(=O)N[C@@H](CO)C(=O)N1C[C@H](O)C[C@H]1C(=O)N[C@@H](CC(=O)O)C(=O)N[C@@H](C)C(=O)N[C@@H](Cc1c[nH]cn1)C(=O)N[C@@H](CC(C)C)C(=O)NCC(=O)N2` [BCY16047, A-(SEQ ID NO: 15)-A], the pKd in experiment [1] was 7.31; in experiment [2], 5.32. Moreover, the Ki came to 0.133 µM in experiment [3] (Geomean Ki (μM)) and 0.042 µM in experiment [3] (Human TfR1 Ki (nM)).

`CC[C@H](C)[C@@H]1NC(=O)[C@@H]2CSCC(=O)N3CN(CN(C3)C(=O)CSC[C@H](NC(=O)[C@H](CCSC)NC(=O)[C@H](Cc3c[nH]c4ccccc34)NC(=O)[C@@H](N)Cc3c[nH]cn3)C(=O)N[C@@H](CO)C(=O)N3CCC[C@H]3C(=O)N[C@@H](CC(=O)O)C(=O)N[C@@H](C)C(=O)N[C@@H](Cc3c[nH]cn3)C(=O)N[C@@H](CC(C)C)C(=O)NCC(=O)N2)C(=O)CSC[C@@H](C(=O)N[C@@H](C)C(N)=O)NC(=O)[C@H](Cc2ccc(O)cc2)NC(=O)[C@H](CO)NC1=O` [BCY17110, HWM-(SEQ ID NO: 9)-A] (H-HWMCSPDAHLGCISYCA-NH2; linker 4-12-16 via TATB) gave a Kd in experiment [1] of 15 nM. This molecule showed a negative-log Kd (pKd) in experiment [2] of 6.63. Further, the affinity in experiment [3] (Geomean Ki (μM)) corresponds to a Ki of 0.022 µM.

On to `CC[C@H](C)[C@@H]1NC(=O)[C@@H]2CSCC(=O)N3CN(CN(C3)C(=O)CSC[C@H](NC(=O)[C@H](CO)NC(=O)[C@@H](NC(=O)[C@@H](N)Cc3c[nH]cn3)[C@@H](C)O)C(=O)N[C@@H](CO)C(=O)N3CCC[C@H]3C(=O)N[C@@H](CC(=O)O)C(=O)N[C@@H](C)C(=O)N[C@@H](Cc3c[nH]cn3)C(=O)N[C@@H](CC(C)C)C(=O)NCC(=O)N2)C(=O)CSC[C@@H](C(=O)N[C@@H](C)C(N)=O)NC(=O)[C@H](Cc2ccc(O)cc2)NC(=O)[C@H](CO)NC1=O` [BCY17111, HTS-(SEQ ID NO: 9)-A] (H-HTSCSPDAHLGCISYCA-NH2; linker 4-12-16 via TATB), for which the Kd in experiment [1] was 8.3 nM. In experiment [2], this molecule had a pKd of 6.04. In experiment [3] (Geomean Ki (μM)), this molecule gave a Ki of 0.086 µM.

On to `CC[C@H](C)[C@@H]1NC(=O)[C@@H]2CSCC(=O)N3CN(CN(C3)C(=O)CSC[C@H](NC(=O)[C@H](Cc3ccccc3)NC(=O)[C@H](CO)NC(=O)[C@@H](N)CCC(=O)O)C(=O)N[C@@H](CO)C(=O)N3CCC[C@H]3C(=O)N[C@@H](CC(=O)O)C(=O)N[C@@H](C)C(=O)N[C@@H](Cc3c[nH]cn3)C(=O)N[C@@H](CC(C)C)C(=O)NCC(=O)N2)C(=O)CSC[C@@H](C(=O)N[C@@H](C)C(N)=O)NC(=O)[C@H](Cc2ccc(O)cc2)NC(=O)[C@H](CO)NC1=O` [BCY17113, ESF-(SEQ ID NO: 9)-A] (H-ESFCSPDAHLGCISYCA-NH2; linker 4-12-16 via TATB), for which binding in experiment [1] was put at a Kd of 308 nM. In addition, in experiment [2], the pKd was 5.78. The affinity in experiment [3] (Geomean Ki (μM)), expressed as Ki, was 0.103 µM.

`CC[C@H](C)[C@@H]1NC(=O)[C@@H]2CSCC(=O)N3CN(CN(C3)C(=O)CSC[C@@H](C(=O)N3CCC[C@H]3C(=O)N[C@@H](Cc3c[nH]cn3)C(=O)N3CCC[C@H]3C(N)=O)NC(=O)[C@H](Cc3ccc(O)cc3)NC(=O)[C@H](CO)NC1=O)C(=O)CSC[C@H](NC(=O)[C@H](C)N)C(=O)N[C@@H](CO)C(=O)N1CCC[C@H]1C(=O)N[C@@H](CC(=O)O)C(=O)N[C@@H](C)C(=O)N[C@@H](Cc1c[nH]cn1)C(=O)N[C@@H](CC(C)C)C(=O)NCC(=O)N2` [BCY17115, A-(SEQ ID NO: 9)-PHP] (H-ACSPDAHLGCISYCPHP-NH2; linker 2-10-14 via TATB; N-terminus and C-terminus assumed): in experiment [1], the Kd came to 60 nM. This molecule gave a pKd in experiment [2] of 5.91. Besides, the Ki in experiment [3] (Geomean Ki (μM)) and in experiment [3] (Human TfR1 Ki (nM)) was 0.03 µM throughout.

In turn, `CC[C@H](C)[C@@H]1NC(=O)[C@@H]2CSCC(=O)N3CN(CN(C3)C(=O)CSC[C@@H](C(=O)N[C@@H](CCC(=O)O)C(=O)N[C@@H](Cc3c[nH]cn3)C(=O)N[C@@H](CCC(N)=O)C(=O)N[C@@H](CCC(=O)O)C(N)=O)NC(=O)[C@H](Cc3ccc(O)cc3)NC(=O)[C@H](CO)NC1=O)C(=O)CSC[C@H](NC(=O)[C@H](C)N)C(=O)N[C@@H](CO)C(=O)N1CCC[C@H]1C(=O)N[C@@H](CC(=O)O)C(=O)N[C@@H](C)C(=O)N[C@@H](Cc1c[nH]cn1)C(=O)N[C@@H](CC(C)C)C(=O)NCC(=O)N2` [BCY17119, A-(SEQ ID NO: 9)-EHQE] (H-ACSPDAHLGCISYCEHQE-NH2; linker 2-10-14 via TATB) showed a Kd in experiment [1] of 212 nM. This molecule also gave a pKd in experiment [2] of 5.25. In experiment [3] (Geomean Ki (μM)), this molecule had a Ki of 0.16 µM.

Molecule `CC[C@H](C)[C@@H]1NC(=O)[C@@H]2CSCC(=O)N3CN(CN(C3)C(=O)CSC[C@H](NC(C)=O)C(=O)N[C@@H](CO)C(=O)N[C@@H](C)C(=O)N[C@@H](CC(=O)O)C(=O)N[C@@H](C)C(=O)N[C@@H](Cc3c[nH]cn3)C(=O)N[C@@H](CC(C)C)C(=O)NCC(=O)N2)C(=O)CSC[C@@H](C(N)=O)NC(=O)[C@H](Cc2ccc(O)cc2)NC(=O)[C@H](CO)NC1=O` [BCY17987, Ac-(SEQ ID NO: 19)] (Ac-CSADAHLGCISYC-NH2; linker 1-9-13 via TATB) yielded a Kd in experiment [1] of 50 nM. In experiment [2], this molecule showed a pKd of 5.29. The Ki in experiment [3] (Geomean Ki (μM)) came to 0.042 µM; in experiment [3] (Human TfR1 Ki (nM)), 0.383 µM.
